According to paper PMC9230590, “Pharmacokinetics and Tissue Distribution of Enavogliflozin in Mice and Rats” (Pharmaceutics, 2022):
“And” between values parts separate entries of the source, which are not always exact repeats. Identical values can stand only once. Like-named read-outs stand apart in the source and are kept apart here.

Legend:
SGLT1 = tested on: SGLT1; set-up: method as in PMID 32183468; details: cited from earlier work
[1] = Tissue distribution after single or repeated oral administration (7 or 14 days) in mice; format: in vivo, ICR mice; details: for Kp / AUC(0-t): ICR, mouse, po, 1 mg/kg; for Kp: read-out: AUC Ratio (AUC48 h, tissue / AUC48 h, plasma); for AUC(0-t): plasma, read-out: AUC48 h; for AUC48 h: oral 1 mg/kg
Experimental: Thirty-five ICR mice were randomly divided into five groups (n = 7 per sampling time point) and administered with an enavogliflozin solution (1 mg/kg, once daily) for 14 days via oral gavage. Another thirty-five ICR mice were randomly divided into five groups (n = 7 per sampling time point) and administered with an enavogliflozin solution (1 mg/kg, once daily) for 7 days via oral gavage. The other thirty-five ICR mice were randomly divided into five groups (n = 7 per sampling time point) and administered with an enavogliflozin solution at a dose of 1 mg/kg via oral gavage. Blood samples (approximately 0.2 mL) were collected at 1, 2, 8, 24, and 48 h via the abdominal artery. Subsequently, whole tissues, including kidney, liver, small intestine, and large intestine, were isolated. An aliquot (30 µL) of plasma and aliquots (50 µL) of tissue homogenate samples were prepared and stored with the same procedures described above.
(§1) Concentrations of enavogliflozin in plasma and tissue homogenate samples were analyzed using an Agilent 6430 triple quadrupole liquid chromatography-mass spectrometry (LC–MS/MS) system (Agilent, Wilmington, DE, USA) following a previously published method.
(§2) The data were expressed as the means ± standard deviation for the groups. Pharmacokinetic parameters, such as the area under the plasma concentration–time curve during the period of observation (AUClast), AUC to infinite time (AUC∞), clearance (CL), and volume of distribution at steady-state (Vd,ss), the terminal half-life (t1/2), and mean residence time (MRT) were calculated using non-compartment analysis with WinNonlin software (version 5.1; Pharsights, Cary, NC, USA). The AUC ratios were calculated by dividing the AUClast of enavogliflozin in the tissue samples by the plasma AUClast values of enavogliflozin [15].

[2] = tested on: urinary glucose excretion; set-up: method as in PMID 35395697; details: single oral administration, dose range 0.2 to 5.0 mg, healthy male volunteers; cited from earlier work
[3] = Recovery from urine and feces over 72 h in mice; format: in vivo, ICR mice; details: for Recovery, Feces / Recovery, Urine: parent form
Experimental: Three mice received enavogliflozin (1 mg/kg) intravenously and were returned to metabolic cages with food and water ad libitum and urine and feces samples were collected every 24 h for 72 h. Urine and feces were weighed, and 30 µL aliquots of urine and 50 µL aliquots of 10% feces homogenates were stored at −80 °C until enavogliflozin analysis. Four mice received enavogliflozin (1 mg/kg) by oral gavage and were returned to their metabolic cages to collect urine and feces samples every 24 h for 72 h with the same protocols described above.
as §1
Aliquots of plasma or urine (30 µL each) and tissue homogenate (50 µL each) were added to 100 µL of aqueous solution of d4-enavogliflozin (IS, 20 ng/mL), and vigorously mixed with 500 µL MTBE for 15 min. After centrifugation at 16,000× g for 5 min, samples were kept for 1 h, at a temperature of −80 °C to freeze the aqueous layer freeze. The organic upper layer was then transferred to a clean tube and evaporated to dryness under a gentle stream of nitrogen. The dried extract was reconstituted in 150 µL of mobile phase, and a 3 µL aliquot was injected into the LC–MS/MS system. Enavogliflozin was separated on a Synergi Polar RP column (2.0 × 150 mm, 4 µm particle size; Phenomenex, Torrence, CA, USA) using a isocratic mobile phase consisting of water (15%) and methanol (85%) containing 0.1% formic acid at a flow rate of 0.25 mL/min.

[4] = Pharmacokinetics after intravenous injection in rats; format: in vivo, Sprague Dawley (SD) rats; details: for AUC∞/D / Co/D: dose normalized; for Co / half-life / MRT / clearance / Vd / AUC(0-inf) / AUC(0-t): plasma; for half-life / MRT / clearance / Vd / AUC(0-inf) / AUC(0-t): rat; for half-life / MRT: incomplete elimination phase; for Vd: read-out: Vd,ss
Experimental: Twelve rats were randomly divided into three groups (n = 4 per each group) and injected with an enavogliflozin solution at doses of 0.3, 1, and 3 mg/kg. The drug was dissolved in a mixture of 10% DMSO and 90% saline and administered intravenously via the tail vein. Before blood sampling, rats were anesthetized using 2% isoflurane in a vaporizer with an oxygen flow of 0.8 L/min, for 5 min. Blood samples (approximately 100 µL) were collected at 0, 0.05, 0.33, 0.67, 1, 2, 4, 6, and 8 h via the jugular vein under isoflurane anesthesia using a heparin-treated 1 mL syringe (Jung Lim Co. Ltd., Jincheon, Korea). Samples were centrifuged at 12,000× g for 1 min to separate the plasma. An aliquot (30 µL) of each plasma sample was stored at −80 °C until analysis.
as §1, §2

SMILES: OC[C@H]1O[C@@H](c2cc(Cc3ccc(C4CC4)cc3)c(Cl)c3c2CCO3)[C@H](O)[C@@H](O)[C@@H]1O [enavogliflozin, (2S,3R,4R,5S,6R)-2-(7-chloro-6-(4-cyclopropylbenzyl) -2,3-dihydrobenzofuran-4-yl)-6-(hydroxymethyl)tetrahydro-2H-pyran-3,4,5-triol]
- IC50 (SGLT1): 549 ± 140 nM
- Kp ([1]; kidney, repeated dose for 7 days, kidney): 37.6 ± 5.9
- Kp ([1]; kidney, repeated dose for 14 days, kidney): 38.4 ± 18
- Kp ([1]; kidney, single dose, kidney): 38.7 ± 6.3
- Kp ([1]; large intestine, repeated dose for 7 days, large intestine): 2.33 ± 0.34
- Kp ([1]; large intestine, repeated dose for 14 days, large intestine): 2.2 ± 0.71
- Kp ([1]; large intestine, single dose, large intestine): 3.24 ± 1.1
- Kp ([1]; liver, repeated dose for 7 days, liver): 3.77 ± 0.73
- Kp ([1]; liver, repeated dose for 14 days, liver): 4.37 ± 2.6
- Kp ([1]; liver, single dose, liver): 4.85 ± 0.64
- AUC(0-t) ([1]; repeated dose for 7 days): 2090 ± 290 ng·h/mL
- AUC(0-t) ([1]; repeated dose for 14 days): 2360 ± 690 ng·h/mL
- AUC(0-t) ([1]; single dose): 2130 ± 270 ng·h/mL
- Kp ([1]; small intestine, repeated dose for 7 days, small intestine): 4.5 ± 0.89
- Kp ([1]; small intestine, repeated dose for 14 days, small intestine): 3.4 ± 1.5
- Kp ([1]; small intestine, single dose, small intestine): 3.47 ± 0.49
- AUC48 h ([1]; repeated dose for 7 days, kidney): 77.2 ± 6.3 µg·h/g
- AUC48 h ([1]; repeated dose for 7 days, large intestine): 4.88 ± 1.1 µg·h/g
- AUC48 h ([1]; repeated dose for 7 days, liver): 7.89 ± 2.1 µg·h/g
- AUC48 h ([1]; repeated dose for 7 days, small intestine): 9.39 ± 2.1 µg·h/g
- AUC48 h ([1]; repeated dose for 14 days, kidney): 81.6 ± 4.8 µg·h/g
- AUC48 h ([1]; repeated dose for 14 days, large intestine): 4.90 ± 1.5 µg·h/g
- AUC48 h ([1]; repeated dose for 14 days, liver): 8.85 ± 1.8 µg·h/g
- AUC48 h ([1]; repeated dose for 14 days, small intestine): 7.46 ± 2.3 µg·h/g
- AUC48 h ([1]; single dose, kidney): 80.9 ± 5.1 µg·h/g
- AUC48 h ([1]; single dose, large intestine): 5.68 ± 1.6 µg·h/g
- AUC48 h ([1]; single dose, liver): 10.2 ± 1.0 µg·h/g
- AUC48 h ([1]; single dose, small intestine): 7.30 ± 0.77 µg·h/g
- urinary glucose excretion [2]: dose-dependent increase
- Recovery in feces relative to urine ([3]; 1 mg/kg IV): about 6 fold
- Recovery, Feces ([3]; 1 mg/kg IV, 0–24 h, 1 mg/kg): 36.3 % of Dose and 36.3 ± 3.6 % of Dose
- Recovery, Urine ([3]; 1 mg/kg IV, 0–24 h, 1 mg/kg): 6.3 % of Dose and 6.3 ± 0.8 % of Dose
- Recovery, Feces ([3]; 1 mg/kg IV, 0–72 h, 1 mg/kg): 39.3 ± 3.5 % of Dose and 39.3 % of Dose
- Recovery, Urine ([3]; 1 mg/kg IV, 0–72 h, 1 mg/kg): 6.6 ± 0.7 % of Dose and 6.6 % of Dose
- Recovery, Feces ([3]; 1 mg/kg IV, 24–48 h): 2.7 ± 1.3 % of Dose
- Recovery, Urine ([3]; 1 mg/kg IV, 24–48 h): 0.1 ± 0.0 % of Dose
- Recovery, Feces ([3]; 1 mg/kg IV, 48–72 h): 0.4 ± 0.1 % of Dose
- Recovery, Feces ([3]; 1 mg/kg PO, 0–24 h): 50.6 ± 11.1 % of Dose
- Recovery, Urine ([3]; 1 mg/kg PO, 0–24 h): 6.6 ± 0.6 % of Dose
- Recovery, Urine ([3]; 1 mg/kg PO, 0–72 h): 6.8 ± 0.6 % of Dose
- Recovery, Feces ([3]; 1 mg/kg PO, 0–72 h, 1 mg/kg): 51.4 % of Dose and 51.4 ± 11.5 % of Dose
- Recovery, Feces ([3]; 1 mg/kg PO, 24–48 h): 0.72 ± 0.4 % of Dose
- Recovery, Urine ([3]; 1 mg/kg PO, 24–48 h): 0.1 ± 0.0 % of Dose
- Recovery, Feces ([3]; 1 mg/kg PO, 48–72 h): 0.2 ± 0.1 % of Dose
- dose excreted ([3]; ICR, mouse, urine and feces, 1 mg/kg IV, 72 h, read-out: total recovery (feces + urine)): ~46%
- AUC∞/D ([4]; IV 0.3 mg/kg): 2831.6 ± 359.0
- Co/D ([4]; IV 0.3 mg/kg): 4231.2 ± 1720.0
- Co ([4]; IV 0.3 mg/kg): 1269.4 ± 516.0 ng/mL
- AUC∞/D ([4]; IV 1 mg/kg): 2798.6 ± 551.4
- Co/D ([4]; IV 1 mg/kg): 3956.4 ± 1028.2
- Co ([4]; IV 1 mg/kg): 3956.4 ± 1028.2 ng/mL
- AUC∞/D ([4]; IV 3 mg/kg): 2462.4 ± 429.3
- Co/D ([4]; IV 3 mg/kg): 3419.4 ± 1364.8
- Co ([4]; IV 3 mg/kg): 10,258.1 ± 4094.5 ng/mL
- plasma concentrations at 24 h ([4]; IV 0.3, 1, and 3 mg/kg groups): below the detection limit
- half-life ([4]; Sprague Dawley, IV 0.3 mg/kg): 156 ± 24 min
- half-life ([4]; Sprague Dawley, IV 1 mg/kg): 174 ± 24 min
- half-life ([4]; Sprague Dawley, IV 3 mg/kg): 258 ± 36 min
- MRT ([4]; Sprague Dawley, IV 0.3 mg/kg): 2.5 ± 0.4 h
- clearance ([4]; Sprague Dawley, IV 0.3 mg/kg, read-out: CL): 6 ± 0.8 mL/min/kg
- Vd ([4]; Sprague Dawley, IV 0.3 mg/kg): 0.9 ± 0.2 L/kg
- MRT ([4]; Sprague Dawley, IV 1 mg/kg): 2.9 ± 0.4 h
- clearance ([4]; Sprague Dawley, IV 1 mg/kg, read-out: CL): 6.2 ± 1.4 mL/min/kg
- Vd ([4]; Sprague Dawley, IV 1 mg/kg): 1.1 ± 0.1 L/kg
- MRT ([4]; Sprague Dawley, IV 3 mg/kg): 5.1 ± 1.1 h
- clearance ([4]; Sprague Dawley, IV 3 mg/kg, read-out: CL): 6.9 ± 1.2 mL/min/kg
- Vd ([4]; Sprague Dawley, IV 3 mg/kg): 2.1 ± 0.4 L/kg
- AUC(0-inf) ([4]; Sprague-Dawley, IV 0.3 mg/kg): 850 ± 108 ng·h/mL
- AUC(0-t) ([4]; Sprague-Dawley, IV 0.3 mg/kg): 784 ± 94.4 ng·h/mL
- AUC(0-inf) ([4]; Sprague-Dawley, IV 1 mg/kg): 2800 ± 551 ng·h/mL
- AUC(0-t) ([4]; Sprague-Dawley, IV 1 mg/kg): 2510 ± 447 ng·h/mL
- AUC(0-inf) ([4]; Sprague-Dawley, IV 3 mg/kg): 7390 ± 1290 ng·h/mL
- AUC(0-t) ([4]; Sprague-Dawley, IV 3 mg/kg): 5610 ± 751 ng·h/mL
- clearance ([4]; Sprague-Dawley, IV 0.3–3 mg/kg, all doses together, read-out: Systemic clearance): 6.35 ± 1.14 mL/min/kg
